Experimental data published in patent publication US9676701B2, “Cyclopropylamine derivatives useful as LSD1 inhibitors” (Oryzon Genomics, S.A., priority 2010, dated 2017).
Counter-ions that a name gives are not always drawn.

Assays:
[1] = target: Human recombinant LSD1 protein (Homo sapiens (Human), UniProt O60341); assay: biochemical
From the text: The ability of the compounds of the invention to inhibit LSD1 can be tested as follows. Human recombinant LSD1 protein was purchased from BPS Bioscience Inc. In order to monitor LSD1 enzymatic activity and/or its inhibition rate by our inhibitor(s) of interest, di-methylated H3-K4 peptide (Millipore) was chosen as a substrate. The demethylase activity was estimated, under aerobic conditions, by measuring the release of H2O2 produced during the catalytic process, using the Amplex® Red peroxide/peroxidase-coupled assay kit (Invitrogen).
Within the experiment, each concentration of inhibitor was tested in triplicate. […] The enzymatic reactions were set up in a 50 mM sodium phosphate, pH 7.4 buffer. At the end of the incubation, Amplex® Red reagent and horseradish peroxidase (HPR) solution were added to the reaction according to the recommendations provided by the supplier (Invitrogen), and left to incubate for 30 extra minutes at room temperature in the dark. A 1 μM H2O2 solution was used as a control of the kit efficiency.
The Ki (IC50) of each inhibitor was estimated at half of the maximum activity.

MAO-A = MAO-A (Homo sapiens (Human), UniProt P21397); settings: read-out: MAO-A (Ki)
MAO-B = MAO-B (Homo sapiens (Human), UniProt P27338); settings: read-out: MAO-B (Ki)
Sequence of MAO-B (P27338 whole entry): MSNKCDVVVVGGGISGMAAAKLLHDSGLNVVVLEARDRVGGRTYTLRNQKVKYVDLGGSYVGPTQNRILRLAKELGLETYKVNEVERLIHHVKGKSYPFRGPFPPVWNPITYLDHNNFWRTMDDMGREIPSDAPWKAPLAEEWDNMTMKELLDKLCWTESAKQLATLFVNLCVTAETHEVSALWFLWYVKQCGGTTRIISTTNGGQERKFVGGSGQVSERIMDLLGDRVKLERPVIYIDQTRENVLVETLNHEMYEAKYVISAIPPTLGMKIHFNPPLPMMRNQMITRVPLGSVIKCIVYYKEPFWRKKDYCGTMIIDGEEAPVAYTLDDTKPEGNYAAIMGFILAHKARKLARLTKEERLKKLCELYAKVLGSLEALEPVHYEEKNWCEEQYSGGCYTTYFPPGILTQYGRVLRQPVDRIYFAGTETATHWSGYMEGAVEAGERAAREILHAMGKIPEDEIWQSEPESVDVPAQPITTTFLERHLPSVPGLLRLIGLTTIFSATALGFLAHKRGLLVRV

Sequence of MAO-A (P21397 whole entry): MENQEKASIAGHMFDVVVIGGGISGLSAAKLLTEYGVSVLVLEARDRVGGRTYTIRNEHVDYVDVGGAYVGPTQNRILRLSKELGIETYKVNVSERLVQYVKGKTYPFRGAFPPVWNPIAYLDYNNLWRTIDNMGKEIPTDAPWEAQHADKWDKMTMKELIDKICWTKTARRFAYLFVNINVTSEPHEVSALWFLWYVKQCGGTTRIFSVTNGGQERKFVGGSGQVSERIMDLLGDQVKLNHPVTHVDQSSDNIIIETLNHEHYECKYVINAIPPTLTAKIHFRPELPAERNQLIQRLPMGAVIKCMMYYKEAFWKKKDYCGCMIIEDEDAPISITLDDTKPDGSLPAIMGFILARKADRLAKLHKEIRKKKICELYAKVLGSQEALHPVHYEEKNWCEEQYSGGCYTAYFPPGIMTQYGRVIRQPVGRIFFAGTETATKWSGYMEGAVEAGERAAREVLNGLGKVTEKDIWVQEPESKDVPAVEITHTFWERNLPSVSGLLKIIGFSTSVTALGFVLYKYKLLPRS

N[C@H]1C[C@@H]1c1ccc(-c2ccc(F)c(O)c2)cc1 (relative stereo) [Example 66, 4′-((trans)-2-aminocyclopropyl)-4-fluorobiphenyl-3-ol hydrochloride]
Ki [1]: 1 to 100 nM

COc1cc(-c2ccc([C@H]3C[C@@H]3N)cn2)ccc1F (relative stereo) [Example 38, (trans)-2-(6-(4-fluoro-3-methoxyphenyl)pyridin-3-yl)cyclopropanamine hydrochloride]
Ki (MAO-A): 1000 to 40000 nM | Ki (MAO-B): 1000 to 40000 nM | Ki [1]: 100 to 1000 nM

N[C@H]1C[C@@H]1c1ccc(-c2ccc(Cl)s2)nc1 (relative stereo) [Example 31, (trans)-2-(6-(5-chlorothiophen-2-yl)pyridin-3-yl)cyclopropanamine hydrochloride]
Ki (MAO-A): 1000 to 40000 nM | Ki (MAO-B): 1000 to 40000 nM | Ki [1]: 1 to 100 nM

N[C@H]1C[C@@H]1c1ccc(-c2csc3ccccc23)nc1 (relative stereo) [Example 55, (trans)-2-(6-(benzo[b]thiophen-3-yl)pyridin-3-yl)cyclopropanamine hydrochloride]
Ki (MAO-A): 1000 to 40000 nM | Ki (MAO-B): 1000 to 40000 nM | Ki [1]: 100 to 1000 nM

CS(=O)(=O)Nc1ccccc1-c1ccc([C@H]2C[C@@H]2N)cn1 (relative stereo) [Example 71, N-(2-(5-((trans)-2-aminocyclopropyl)pyridin-2-yl)phenyl)methanesulfonamide hydrochloride]
Ki (MAO-A): 1000 to 40000 nM | Ki (MAO-B): 1000 to 40000 nM | Ki [1]: 100 to 1000 nM

Cc1cccc(-c2ccc([C@H]3C[C@@H]3N)cn2)c1 (relative stereo) [Example 15, (Trans)-2-(6-m-tolylpyridin-3-yl)cyclopropanamine hydrochloride]
Ki (MAO-A): 1000 to 40000 nM | Ki (MAO-B): 1000 to 40000 nM | Ki [1]: 100 to 1000 nM

COc1cc(-c2ccc([C@H]3C[C@@H]3N)cn2)cc(F)c1F (relative stereo) [Example 58, (Trans)-2-(6-(3,4-difluoro-5-methoxyphenyl)pyridin-3-yl)cyclopropanamine hydrochloride]
Ki (MAO-A): 1000 to 40000 nM | Ki (MAO-B): 1000 to 40000 nM | Ki [1]: 100 to 1000 nM

Cc1ccc(-c2ccc([C@H]3C[C@@H]3N)cn2)cc1O (relative stereo) [Example 46, 5-(5-((trans)-2-aminocyclopropyl)pyridin-2-yl)-2-methylphenol hydrochloride]
Ki (MAO-A): 1000 to 40000 nM | Ki (MAO-B): 1000 to 40000 nM | Ki [1]: 1 to 100 nM

CS(=O)(=O)Nc1cc(-c2ccc([C@H]3C[C@@H]3N)cn2)ccc1F (relative stereo) [Example 97, N-(5-(5-((trans)-2-aminocyclopropyl)pyridin-2-yl)-2-fluorophenyl)methanesulfonamide hydrochloride]
Ki (MAO-A): 1000 to 40000 nM | Ki (MAO-B): 1000 to 40000 nM | Ki [1]: 100 to 1000 nM

N[C@H]1C[C@@H]1c1ccc(-c2cc(O)c(F)c(F)c2)nc1 (relative stereo) [Example 59, 5-(5-((trans)-2-aminocyclopropyl)pyridin-2-yl)-2,3-difluorophenol hydrochloride]
Ki (MAO-B): 1000 to 40000 nM | Ki [1]: 1 to 100 nM

CC(C)S(=O)(=O)Nc1cccc(-c2ccc([C@H]3C[C@@H]3N)cc2)c1 (relative stereo) [Example 69, N-(4′-((trans)-2-aminocyclopropyl)biphenyl-3-yl)propane-2-sulfonamide hydrochloride]
Ki [1]: 1 to 100 nM

N[C@H]1C[C@@H]1c1ccc(-c2cccc(NS(=O)(=O)C(F)(F)F)c2)cc1 (relative stereo) [Example 103, N-(4′-((trans)-2-aminocyclopropyl)-[1,1′-biphenyl]-3-yl)-1,1,1-trifluoromethanesulfonamide hydrochloride]
Ki [1]: 100 to 1000 nM

N[C@H]1C[C@@H]1c1ccc(-c2cc(O)cc(Cl)c2)cc1 (relative stereo) [Example 67, 4′-((trans)-2-aminocyclopropyl)-5-chlorobiphenyl-3-ol hydrochloride]
Ki [1]: 1 to 100 nM

N[C@H]1C[C@@H]1c1ccc(-c2cccc(NS(=O)(=O)c3ccccc3)c2)cc1 (relative stereo) [Example 68, N-(4′-((trans)-2-aminocyclopropyl)biphenyl-3-yl)benzenesulfonamide hydrochloride]
Ki [1]: 1 to 100 nM
